How the values were obtained:
[1] = system: content of triglyceride in the liver; assay: Hepatic triglyceride content in fasted/re-fed mice (fatty liver model); type: in vivo, mice (male C57BI/6J); conditions: re-fed mice after 48 h fasting; ibudilast 10 and 100 mg/kg orally twice a day (FIG. 2); vs. vehicle
Excerpt: In NAFLD, it is regarded that the increase of the fatty acid synthesis in the liver is an important factor involved in the fatty liver formation (Shinji, T., et al. 2005. J. Clin. Invest. 115: 1139-1142). Therefore, with reference to methods described in Delzenne et al. (Delzenne, N. M., et al., 1997, J. HepatoL, 26: 880-885) and Tsuchida et al. (Tsuchida. A., et al., 2004, J. Bio. Chem., 279: 30817-30822), effects of ibudilast on the fatty liver were examined by using re-fed mice in which the fatty acid synthesis in the liver is enhanced. After 48 hours of fasting, male C57BI/6J mice at 8 weeks of age (CLEA Japan, Inc.) were refed for four hours. To the vehicle group as a control, 2% (v/v) of PEG-60 hydrogenated castor oil (NIKKOL HCO-60, Nikko Chemicals Co., Ltd.) was orally administrated before fasting and after fasting periods of 12, 24, 36, and 48 hours. To ibudilast groups, […] or 100 mg/kg of ibudilast which was dissolved to 2% (v/v) of PEG-60 hydrogenated castor oil was orally administered before fasting and after fasting periods of 12, 24, 36, and 48 hours. […] The content of triglyceride and biosynthesis of fatty acid in isolated liver were measured. […] The dried extract was dissolved to 4% (v/v) of Triton X-100 and the triglyceride concentration was measured using Liquitech TG-II reagent (Roche Diagnostics K. K.). […]

IL-1β mRNA = IL-1β mRNA expression in liver of MCD diet-fed mice (quantitative real-time PCR); type: in vivo, mice (male C57BI/6J); conditions: ibudilast 10, 30 or 100 mg/kg orally twice a day for 14 days (FIG. 6), relative to 18S rRNA
Experimental: (§1) Effects of ibudilast on the hepatic inflammation and hepatic fibrosis were examined using methionine- and choline-deficient (MCD) diet-fed mice which induced hepatic inflammation and hepatic fibrosis involved in human pathological conditions like NASH. The MCD diet (Oriental Yeast Co., Ltd.) produced in accordance with the previous report by Okumura et al. (Okumura, K., et al. 2006, Hepatol. Res., 36: 217-228) was administered to male C57BI/6J mice (CLEA Japan, Inc.) at ten weeks of age for six weeks. […] Thereafter, TNFα, MCP-1, IL-1β, TGFβ, and col1a1 mRNA expressions in isolated liver were measured using the quantitative real-time PCR method. The 18S rRNA mRNA expression was used as an internal standard of the quantitative real-time PCR method and similarly measured. […] The quantitative real-time PCR was performed using TaqMan Fast Universal PCR Master Mix (Applied Biosystems) and Applied Biosystems 7500 Fast Real-Time PCR System (Applied Biosystems). […] Moreover, each operation relating to the quantitative real-time PCR was carried out in accordance with the manual attached to each reagent, kits and device. […]

TGFβ mRNA = TGFβ mRNA expression in liver of MCD diet-fed mice (quantitative real-time PCR); type: in vivo, mice (male C57BI/6J); conditions: ibudilast 10, 30 or 100 mg/kg orally twice a day for 14 days (FIG. 7), relative to 18S rRNA
Experimental: as §1

MCP-1 mRNA = MCP-1 mRNA expression in liver of MCD diet-fed mice (quantitative real-time PCR); type: in vivo, mice (male C57BI/6J); conditions: ibudilast 10, 30 or 100 mg/kg orally twice a day for 14 days (FIG. 5), relative to 18S rRNA
Experimental: as §1

[2] = system: triglyceride content in liver; assay: Hepatic triglyceride content in ob/ob mice (obesity-related fatty liver model); type: in vivo, mice (male ob/ob, B6.V-Lep^ob/J); conditions: ibudilast 10, 30 or 100 mg/kg orally twice a day for two weeks (FIG. 3), vs. vehicle
Experimental: Obesity and insulin resistance are regarded as a major pathologic basis in NAFLD (Kristina, M., et al. 2006, J. Clin Endocrinol Metab., 91: 4753-4761). Therefore, effect of ibudilast on fatty liver was evaluated using B6.V-Lep^ob/J mice (ob/ob; Charles River Laboratories Japan, Inc.), a model of obesity-related insulin resistance and fatty liver. Male ob/ob mice (Charles River Laboratories Japan, Inc.) at seven weeks of age were used. To the vehicle group as a control, 2% (v/v) of PEG-60 hydrogenated castor oil (NIKKOL HCO-60, Nikko Chemicals Co., Ltd.) was orally administrated twice a day. To ibudilast groups, 10, 30 or 100 mg/kg of ibudilast which was dissolved to 2% (v/v). of PEG-60 hydrogenated castor oil was orally administered twice a day. At 15 to 21 hours after the end of two weeks administration period, the mice were dissected in the fed state. The content of triglyceride in isolated liver was measured. Triglyceride was extracted from the liver by using improved method of Folch et al. (Folch, J., et al. 1957. J. Biol. Chem., 226: 497-509). Tissues were homogenized by using chloroform methanol mixture 2:1 (v/v). […] The dried extract was dissolved to 4% (v/v) of Triton X-100 and the triglyceride concentration was measured using Liquitech TG-II reagent (Roche Diagnostics K. K.). […]

col1a1 mRNA = col1a1 mRNA expression in liver of MCD diet-fed mice (quantitative real-time PCR); type: in vivo, mice (male C57BI/6J); conditions: ibudilast 10, 30 or 100 mg/kg orally twice a day for 14 days (FIG. 8), relative to 18S rRNA
Experimental: as §1

[3] = system: fatty acid synthesis in the liver; assay: Hepatic fatty acid synthesis from [1-14C]acetic acid in fasted/re-fed mice (fatty liver model); type: in vivo, mice (male C57BI/6J); conditions: re-fed mice after 48 h fasting; ibudilast 10 and 100 mg/kg orally twice a day (FIG. 1); vs. vehicle
Excerpt: In NAFLD, it is regarded that the increase of the fatty acid synthesis in the liver is an important factor involved in the fatty liver formation (Shinji, T., et al. 2005. J. Clin. Invest. 115: 1139-1142). Therefore, with reference to methods described in Delzenne et al. (Delzenne, N. M., et al., 1997, J. HepatoL, 26: 880-885) and Tsuchida et al. (Tsuchida. A., et al., 2004, J. Bio. Chem., 279: 30817-30822), effects of ibudilast on the fatty liver were examined by using re-fed mice in which the fatty acid synthesis in the liver is enhanced.
After 48 hours of fasting, male C57BI/6J mice at 8 weeks of age (CLEA Japan, Inc.) were refed for four hours. […]
The mice were refed with standard diet (CE-2, CLEA Japan, Inc.) after 30 minutes of the oral administration after fasting periods of 48 hours, and the mice were anatomized after refeeding periods of four hours. The content of triglyceride and biosynthesis of fatty acid in isolated liver were measured.
The fatty acid synthesis in the liver was measured using the fatty acid synthesis from the acetic acid. […]
After centrifugation, the chloroform layer was obtained as the lower layer. After the dried residue was dissolved to methanol, the scintillation cocktail was mixed with the obtained solution to measure radioactivity using liquid scintillation counter (Tri-Crab 1900CA, PerkinElmer). […]

TNFα mRNA = TNFα mRNA expression in liver of MCD diet-fed mice (quantitative real-time PCR); type: in vivo, mice (male C57BI/6J); conditions: ibudilast 10, 30 or 100 mg/kg orally twice a day for 14 days (FIG. 4), relative to 18S rRNA
Experimental: as §1

CC(C)C(=O)c1c(C(C)C)nn2ccccc12 [Ibudilast, ibudilast]
content of triglyceride in the liver [1]: significantly decreased
mRNA expression of IL-1β in liver (index of hepatic inflammation) (IL-1β mRNA): decrease
mRNA expression of TGFβ in liver (index of hepatic fibrosis) (TGFβ mRNA): decrease
mRNA expression of MCP-1 in liver (index of hepatic inflammation) (MCP-1 mRNA): decrease
triglyceride content in liver [2]: significantly decreased
mRNA expression of collal in liver (index of hepatic fibrosis) (col1a1 mRNA): decrease
fatty acid synthesis in the liver [3]: decreased
mRNA expression of TNFα in liver (index of hepatic inflammation) (TNFα mRNA): decrease
